Experiment [1] concerns MDA-MB-231. In words: drug sensitivity score (DSS); higher = more sensitive; extreme values may be limits of the assay. Particulars: incubation time: 72 h. As to the method: (§1)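 MDA-MB-231 breast cancer cells were transfected with siBRCA1 or non-targeting siControl, then seeded 24 h later at 4000 cells/well in 384-well plates holding 198 drugs at 5 concentrations. Viability was read by CellTiter-Blue after 72 h at 37 °C. Dose-response curves were fitted in Dotmatics to give IC50 and a drug sensitivity score (DSS: area under the curve relative to the area between the 10% threshold and 100% inhibition, normalised by the log of the top response). The dose range is not stated. IC50 values of 8333.3 or 4166.7 nM mark no response (top dose), and 0.8333 nM is the lower limit.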

For experiment [2], the system named is MDA-MB-231. The following applies: incubation time: 72 h. The procedure: as §1
The mark [3] stands for this setting: siRNA: siControl (non-targeting).

The values below come from the supplement of paper PMC4649846.

Take `CC(C)(C)NC(=O)[C@H]1CC[C@H]2[C@@H]3CC[C@H]4NC(=O)C=C[C@]4(C)[C@H]3CC[C@]12C` [Finasteride]: the drug sensitivity score in the experiment on MDA-MB-231 [1] (siRNA: siBRCA1) and with MDA-MB-231 [1] (setting [3]) was 0 in each case. The “IC50 of cell viability” value in the experiment with MDA-MB-231 [2] (siRNA: siBRCA1) and with MDA-MB-231 [2] (setting [3]) was greater than 4.17 µM each time.

For the molecule `COCC[n+]1c2c(n(Cc3cnccn3)c1C)C(=O)c1ccccc1C2=O` [YM155], the drug sensitivity score was determined as 40.2 with MDA-MB-231 [1] (siRNA: siBRCA1) and 40.6 in the experiment with MDA-MB-231 [1] (setting [3]). Also, the “IC50 of cell viability” value in the experiment on MDA-MB-231 [2] (siRNA: siBRCA1) was 0.00375 µM; in the experiment on MDA-MB-231 [2] (setting [3]), 0.00356 µM.

For the molecule `O=C1CN2Cc3c(ccc(Cl)c3Cl)N=C2N1` [Anagrelide], the drug sensitivity score in the experiment with MDA-MB-231 [1] (siRNA: siBRCA1) and in the experiment on MDA-MB-231 [1] (setting [3]) was 0 throughout. Moreover, the “IC50 of cell viability” value in the experiment on MDA-MB-231 [2] (siRNA: siBRCA1) and in the experiment on MDA-MB-231 [2] (setting [3]) was greater than 4.17 µM throughout.

`NCC(=O)CCC(=O)O` [Aminolevulinic acid]: the drug sensitivity score in the experiment on MDA-MB-231 [1] (siRNA: siBRCA1) and with MDA-MB-231 [1] (setting [3]) was 0 in each case. Further, the “IC50 of cell viability” value in the experiment with MDA-MB-231 [2] (siRNA: siBRCA1) and in the experiment on MDA-MB-231 [2] (setting [3]) was greater than 4.17 µM each time.

For `C=CC(=O)Nc1cc2c(Nc3ccc(F)c(Cl)c3)ncnc2cc1OCCCN1CCOCC1` [Canertinib], the drug sensitivity score in the experiment on MDA-MB-231 [1] (siRNA: siBRCA1) was 5.78; with MDA-MB-231 [1] (setting [3]) it was 7.67. For the same molecule, the “IC50 of cell viability” value in the experiment with MDA-MB-231 [2] (siRNA: siBRCA1) came to 2.51 µM; with MDA-MB-231 [2] (setting [3]), 1.69 µM.

As for `CCN(CC)CCNC(=O)c1c(C)[nH]c(/C=C2\C(=O)Nc3ccc(F)cc32)c1C` [Sunitinib], the drug sensitivity score was determined as 5.44 in the experiment on MDA-MB-231 [1] (siRNA: siBRCA1) and 4.28 with MDA-MB-231 [1] (setting [3]). Further, the entries for the “IC50 of cell viability” value with MDA-MB-231 [2] (siRNA: siBRCA1) and in the experiment on MDA-MB-231 [2] (setting [3]) were 2.77 µM and 3.52 µM, respectively.

With `C=CCNC1=C2C[C@@H](C)C[C@H](OC)[C@H](O)[C@@H](C)/C=C(\C)[C@H](OC(N)=O)[C@@H](OC)/C=C\C=C(/C)C(=O)NC(=CC1=O)C2=O` [Tanespimycin], the drug sensitivity score in the experiment with MDA-MB-231 [1] (siRNA: siBRCA1) stood at 15.1; with MDA-MB-231 [1] (setting [3]), 17.3. Moreover, the “IC50 of cell viability” value was 0.377 µM in the experiment on MDA-MB-231 [2] (siRNA: siBRCA1) and 0.233 µM with MDA-MB-231 [2] (setting [3]).

On to `CO[C@H](C(=O)[C@@H](O)[C@@H](C)O)[C@@H]1Cc2cc3cc(O[C@H]4C[C@@H](O[C@@H]5C[C@@H](O)[C@H](O)[C@@H](C)O5)[C@H](O)[C@@H](C)O4)c(C)c(O)c3c(O)c2C(=O)[C@H]1O[C@H]1C[C@@H](O[C@@H]2C[C@@H](O)[C@@H](O[C@@H]3C[C@](C)(O)[C@H](O)[C@@H](C)O3)[C@@H](C)O2)[C@H](O)[C@@H](C)O1` [Plicamycin], for which the drug sensitivity score amounted to 23.4 with MDA-MB-231 [1] (siRNA: siBRCA1) and 24.2 in the experiment with MDA-MB-231 [1] (setting [3]). The “IC50 of cell viability” value in the experiment with MDA-MB-231 [2] (siRNA: siBRCA1) amounted to 0.0679 µM; with MDA-MB-231 [2] (setting [3]) it was 0.056 µM.

Take `COc1nc(N)nc2c1ncn2[C@@H]1O[C@H](CO)[C@@H](O)[C@@H]1O` [Nelarabine]: the drug sensitivity score with MDA-MB-231 [1] (siRNA: siBRCA1) and in the experiment on MDA-MB-231 [1] (setting [3]) was 0 each time. For the same molecule, the “IC50 of cell viability” value in the experiment with MDA-MB-231 [2] (siRNA: siBRCA1) and in the experiment with MDA-MB-231 [2] (setting [3]) was greater than 4.17 µM throughout.

`C1CN1c1nc(N2CC2)nc(N2CC2)n1` [Triethylenemelamine]: the drug sensitivity score with MDA-MB-231 [1] (siRNA: siBRCA1) and with MDA-MB-231 [1] (setting [3]) was 0 in each case. The “IC50 of cell viability” value in the experiment with MDA-MB-231 [2] (siRNA: siBRCA1) and with MDA-MB-231 [2] (setting [3]) was greater than 4.17 µM throughout.

Regarding `O=P1(NCCCl)OCCCN1CCCl` (centres undefined) [Ifosfamide], the drug sensitivity score in the experiment on MDA-MB-231 [1] (siRNA: siBRCA1) and with MDA-MB-231 [1] (setting [3]) was 0 in each case. Also, the “IC50 of cell viability” value in the experiment on MDA-MB-231 [2] (siRNA: siBRCA1) and in the experiment on MDA-MB-231 [2] (setting [3]) was greater than 4.17 µM in each case.

In the case of `COc1c2occc2cc2ccc(=O)oc12` [Methoxsalen], the drug sensitivity score in the experiment with MDA-MB-231 [1] (siRNA: siBRCA1) and in the experiment on MDA-MB-231 [1] (setting [3]) was 0 throughout. In addition, the “IC50 of cell viability” value in the experiment on MDA-MB-231 [2] (siRNA: siBRCA1) and in the experiment with MDA-MB-231 [2] (setting [3]) was greater than 4.17 µM each time.

As for `CS(=O)(=O)N1CCN(Cc2cc3nc(-c4cccc5[nH]ncc45)nc(N4CCOCC4)c3s2)CC1` [GDC-0941 (Pictilisib)], the drug sensitivity score amounted to 7.18 with MDA-MB-231 [1] (siRNA: siBRCA1) and 12 in the experiment with MDA-MB-231 [1] (setting [3]). The “IC50 of cell viability” value in the experiment with MDA-MB-231 [2] (siRNA: siBRCA1) is 2.53 µM; in the experiment on MDA-MB-231 [2] (setting [3]), 0.57 µM.

As to `CNCc1ccc(-c2[nH]c3cc(F)cc4c3c2CCNC4=O)cc1`, the drug sensitivity score with MDA-MB-231 [1] (siRNA: siBRCA1) and in the experiment with MDA-MB-231 [1] (setting [3]) was 0 throughout. For the same molecule, the “IC50 of cell viability” value in the experiment with MDA-MB-231 [2] (siRNA: siBRCA1) and in the experiment with MDA-MB-231 [2] (setting [3]) was greater than 4.17 µM in each case.

As to `C=C(c1ccc(C(=O)O)cc1)c1cc2c(cc1C)C(C)(C)CCC2(C)C` [Bexarotene], the drug sensitivity score in the experiment with MDA-MB-231 [1] (siRNA: siBRCA1) and in the experiment with MDA-MB-231 [1] (setting [3]) was 0 throughout. Besides, the “IC50 of cell viability” value with MDA-MB-231 [2] (siRNA: siBRCA1) and in the experiment with MDA-MB-231 [2] (setting [3]) was greater than 4.17 µM in each case.

Take `C[C@]12C=CC(=O)C=C1CC[C@@H]1[C@@H]2[C@@H](O)C[C@@]2(C)[C@H]1CC[C@]2(O)C(=O)CO` [Prednisolone]: the drug sensitivity score in the experiment with MDA-MB-231 [1] (siRNA: siBRCA1) and in the experiment with MDA-MB-231 [1] (setting [3]) was 0 throughout. For the same molecule, the “IC50 of cell viability” value in the experiment with MDA-MB-231 [2] (siRNA: siBRCA1) and with MDA-MB-231 [2] (setting [3]) was greater than 4.17 µM in each case.
